In patent publication US11987588B2, “Modulators of the beta-3 adrenergic receptor useful for the treatment or prevention of heart failure and disorders related thereto” (Arena Pharmaceuticals, Inc., priority 2017, dated 2024):

Biological target: Beta-3 Adrenergic Receptor (Homo sapiens (Human), UniProt P13945)
Assay: Homogeneous Time-Resolved Fluorescence (HTRF) cAMP antagonist assay, IC50 determination
Assay type: cell-based
Conditions: CHO-K1 cells stably expressing recombinant receptor, isoproterenol at EC90
Procedure, shortened: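 CHO-K1 cells stably expressing the recombinant receptor were preincubated with compound (10-point, 5-fold dilutions; top final typically 10 or 100 μM) in PBS with 1 mM IBMX, then stimulated with isoproterenol at its EC90 for 1 h at room temperature. cAMP was read by HTRF against an on-plate standard curve.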

Beta-3 Adrenergic Receptor, sequence (P13945 whole entry, species assumed): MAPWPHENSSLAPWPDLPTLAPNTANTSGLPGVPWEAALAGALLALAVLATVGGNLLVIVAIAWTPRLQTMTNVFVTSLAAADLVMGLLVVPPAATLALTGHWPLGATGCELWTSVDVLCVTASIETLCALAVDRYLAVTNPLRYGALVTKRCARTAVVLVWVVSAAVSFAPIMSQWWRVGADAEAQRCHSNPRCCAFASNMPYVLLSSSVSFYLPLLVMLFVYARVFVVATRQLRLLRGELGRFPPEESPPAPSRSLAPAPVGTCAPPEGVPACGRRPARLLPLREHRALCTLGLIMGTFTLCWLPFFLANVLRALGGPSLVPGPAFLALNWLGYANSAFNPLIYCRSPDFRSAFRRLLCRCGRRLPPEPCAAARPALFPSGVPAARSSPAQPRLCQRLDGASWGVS

Structure (SMILES)	IC50 [nM]
CNS(=O)(=O)c1cccc(OC[C@@H](O)CNC2COC3(CCN(S(=O)(=O)c4ccc5c(c4)CCC(C)(C)O5)CC3)C2)c1 (stereo partly drawn) [Compound 127, 3-((2S)-3-(8-(2,2-dimethylchroman-6-ylsulfonyl)-1-oxa-8-azaspiro[4.5]decan-3-ylamino)-2-hydroxypropoxy)-N-methylbenzenesulfonamide]	14.9
CNS(=O)(=O)c1cccc(OC[C@@H](O)CNC2COC3(CCN(S(=O)(=O)c4cccc5nsnc45)CC3)C2)c1 (stereo partly drawn) [Compound 128, 3-((2S)-3-(8-(benzo[c][1,2,5]thiadiazol-4-ylsulfonyl)-1-oxa-8-azaspiro[4.5]decan-3-ylamino)-2-hydroxypropoxy)-N-methylbenzenesulfonamide]	11.4
CNS(=O)(=O)c1cccc(OC[C@@H](O)CNC2COC3(CCN(S(=O)(=O)c4c(Cl)nc5sccn45)CC3)C2)c1 (stereo partly drawn) [Compound 129, 3-((2S)-3-(8-(6-chloroimidazo[2,1-b]thiazol-5-ylsulfonyl)-1-oxa-8-azaspiro[4.5]decan-3-ylamino)-2-hydroxypropoxy)-N-methylbenzenesulfonamide]	24.9
CNS(=O)(=O)c1cccc(OC[C@@H](O)CNC2COC3(CCN(S(=O)(=O)c4ccc(Oc5ccccc5)nc4)CC3)C2)c1 (stereo partly drawn) [Compound 130, 3-((2S)-2-hydroxy-3-(8-(6-phenoxypyridin-3-ylsulfonyl)-1-oxa-8-azaspiro[4.5]decan-3-ylamino)propoxy)-N-methylbenzenesulfonamide]	8.32
CNS(=O)(=O)c1cccc(OC[C@@H](O)CNC2COC3(CCN(S(=O)(=O)c4cn[nH]c4)CC3)C2)c1 (stereo partly drawn) [Compound 131, 3-((2S)-3-(8-(1H-pyrazol-4-ylsulfonyl)-1-oxa-8-azaspiro[4.5]decan-3-ylamino)-2-hydroxypropoxy)-N-methylbenzenesulfonamide]	84.7
CNS(=O)(=O)c1cccc(OC[C@@H](O)CNC2COC3(CCN(S(=O)(=O)c4cnn(-c5ccccc5)c4C)CC3)C2)c1 (stereo partly drawn) [Compound 132, 3-((2S)-2-hydroxy-3-(8-(5-methyl-1-phenyl-1H-pyrazol-4-ylsulfonyl)-1-oxa-8-azaspiro[4.5]decan-3-ylamino)propoxy)-N-methylbenzenesulfonamide]	10.8
CNS(=O)(=O)c1cccc(OC[C@@H](O)CNC2COC3(CCN(S(=O)(=O)c4cc(C(F)(F)F)ccc4Cl)CC3)C2)c1 (stereo partly drawn) [Compound 133, 3-((2S)-3-(8-(2-chloro-5-(trifluoromethyl)phenylsulfonyl)-1-oxa-8-azaspiro[4.5]decan-3-ylamino)-2-hydroxypropoxy)-N-methylbenzenesulfonamide]	65.4
CNS(=O)(=O)c1cccc(OC[C@@H](O)CNC2COC3(CCN(S(=O)(=O)c4ccc(F)cc4F)CC3)C2)c1 (stereo partly drawn) [Compound 134, 3-((2S)-3-(8-(2,4-difluorophenylsulfonyl)-1-oxa-8-azaspiro[4.5]decan-3-ylamino)-2-hydroxypropoxy)-N-methylbenzenesulfonamide]	37.9
CNS(=O)(=O)c1cccc(OC[C@@H](O)CNC2COC3(CCN(S(=O)(=O)c4ccc(C)cc4OC)CC3)C2)c1 (stereo partly drawn) [Compound 135, 3-((2S)-2-hydroxy-3-(8-(2-methoxy-4-methylphenylsulfonyl)-1-oxa-8-azaspiro[4.5]decan-3-ylamino)propoxy)-N-methylbenzenesulfonamide]	33.3
CCOc1ccc(S(=O)(=O)N2CCC3(CC2)CC(NC[C@H](O)COc2cccc(S(=O)(=O)NC)c2)CO3)cc1 (stereo partly drawn) [Compound 136, 3-((2S)-3-(8-(4-ethoxyphenylsulfonyl)-1-oxa-8-azaspiro[4.5]decan-3-ylamino)-2-hydroxypropoxy)-N-methylbenzenesulfonamide]	23.5
CNS(=O)(=O)c1cccc(OC[C@@H](O)CNC2COC3(CCN(S(=O)(=O)c4ccc(OC(C)C)cc4)CC3)C2)c1 (stereo partly drawn) [Compound 137, 3-((2S)-2-hydroxy-3-(8-(4-isopropoxyphenylsulfonyl)-1-oxa-8-azaspiro[4.5]decan-3-ylamino)propoxy)-N-methylbenzenesulfonamide]	23.8
CNS(=O)(=O)c1cccc(OC[C@@H](O)CNC2COC3(CCN(S(=O)(=O)c4cc(Cl)cc(Cl)c4)CC3)C2)c1 (stereo partly drawn) [Compound 138, 3-((2S)-3-(8-(3,5-dichlorophenylsulfonyl)-1-oxa-8-azaspiro[4.5]decan-3-ylamino)-2-hydroxypropoxy)-N-methylbenzenesulfonamide]	14.2
CNS(=O)(=O)c1cccc(OC[C@@H](O)CNC2COC3(CCN(S(=O)(=O)c4cccc(Cl)c4F)CC3)C2)c1 (stereo partly drawn) [Compound 139, 3-((2S)-3-(8-(3-chloro-2-fluorophenylsulfonyl)-1-oxa-8-azaspiro[4.5]decan-3-ylamino)-2-hydroxypropoxy)-N-methylbenzenesulfonamide]	10.2

More lines, now with the values ahead:

IC50 [nM]	Structure (SMILES)
11.3	CNS(=O)(=O)c1cccc(OC[C@@H](O)CNC2COC3(CCN(S(=O)(=O)c4cc(Cl)ccc4Cl)CC3)C2)c1 (stereo partly drawn) [Compound 140, 3-((2S)-3-(8-(2,5-dichlorophenylsulfonyl)-1-oxa-8-azaspiro[4.5]decan-3-ylamino)-2-hydroxypropoxy)-N-methylbenzenesulfonamide]
35.1	CNS(=O)(=O)c1cccc(OC[C@@H](O)CNC2COC3(CCN(S(=O)(=O)c4ccc(F)c(F)c4)CC3)C2)c1 (stereo partly drawn) [Compound 141, 3-((2S)-3-(8-(3,4-difluorophenylsulfonyl)-1-oxa-8-azaspiro[4.5]decan-3-ylamino)-2-hydroxypropoxy)-N-methylbenzenesulfonamide]
16.8	CNS(=O)(=O)c1cccc(OC[C@@H](O)CNC2COC3(CCN(S(=O)(=O)c4cccc(Cl)c4Cl)CC3)C2)c1 (stereo partly drawn) [Compound 142, 3-((2S)-3-(8-(2,3-dichlorophenylsulfonyl)-1-oxa-8-azaspiro[4.5]decan-3-ylamino)-2-hydroxypropoxy)-N-methylbenzenesulfonamide]
17.1	CNS(=O)(=O)c1cccc(OC[C@@H](O)CNC2COC3(CCN(S(=O)(=O)c4cccc(Cl)c4C)CC3)C2)c1 (stereo partly drawn) [Compound 143, 3-((2S)-3-(8-(3-chloro-2-methylphenylsulfonyl)-1-oxa-8-azaspiro[4.5]decan-3-ylamino)-2-hydroxypropoxy)-N-methylbenzenesulfonamide]
12.2	CNS(=O)(=O)c1cccc(OC[C@@H](O)CNC2COC3(CCN(S(=O)(=O)c4cc(Cl)ccc4F)CC3)C2)c1 (stereo partly drawn) [Compound 144, 3-((2S)-3-(8-(5-chloro-2-fluorophenylsulfonyl)-1-oxa-8-azaspiro[4.5]decan-3-ylamino)-2-hydroxypropoxy)-N-methylbenzenesulfonamide]
21.5	CNS(=O)(=O)c1cccc(OC[C@@H](O)CNC2COC3(CCN(S(=O)(=O)c4cc(Cl)ccc4C#N)CC3)C2)c1 (stereo partly drawn) [Compound 145, 3-((2S)-3-(8-(5-chloro-2-cyanophenylsulfonyl)-1-oxa-8-azaspiro[4.5]decan-3-ylamino)-2-hydroxypropoxy)-N-methylbenzenesulfonamide]
36.2	CNS(=O)(=O)c1cccc(OC[C@@H](O)CNC2COC3(CCN(S(=O)(=O)c4ccc5nc[nH]c5c4)CC3)C2)c1 (stereo partly drawn) [Compound 146, 3-((2S)-3-(8-(1H-benzo[d]imidazol-6-ylsulfonyl)-1-oxa-8-azaspiro[4.5]decan-3-ylamino)-2-hydroxypropoxy)-N-methylbenzenesulfonamide]
13	CNS(=O)(=O)c1cccc(OC[C@@H](O)CNC2COC3(CCN(S(=O)(=O)c4ccc(OC)c(C)c4)CC3)C2)c1 (stereo partly drawn) [Compound 147, 3-((2S)-2-hydroxy-3-(8-(4-methoxy-3-methylphenylsulfonyl)-1-oxa-8-azaspiro[4.5]decan-3-ylamino)propoxy)-N-methylbenzenesulfonamide]
11	CNS(=O)(=O)c1cccc(OC[C@@H](O)CNC2COC3(CCN(S(=O)(=O)c4cc(Cl)ccc4OC)CC3)C2)c1 (stereo partly drawn) [Compound 148, 3-((2S)-3-(8-(5-chloro-2-methoxyphenylsulfonyl)-1-oxa-8-azaspiro[4.5]decan-3-ylamino)-2-hydroxypropoxy)-N-methylbenzenesulfonamide]
20.6	CNS(=O)(=O)c1cccc(OC[C@@H](O)CNC2COC3(CCN(S(=O)(=O)c4ccc(F)c(C)c4)CC3)C2)c1 (stereo partly drawn) [Compound 149, 3-((2S)-3-(8-(4-fluoro-3-methylphenylsulfonyl)-1-oxa-8-azaspiro[4.5]decan-3-ylamino)-2-hydroxypropoxy)-N-methylbenzenesulfonamide]
13.5	CNS(=O)(=O)c1cccc(OC[C@@H](O)CNC2COC3(CCN(S(=O)(=O)c4cc(C)ccc4F)CC3)C2)c1 (stereo partly drawn) [Compound 150, 3-((2S)-3-(8-(2-fluoro-5-methylphenylsulfonyl)-1-oxa-8-azaspiro[4.5]decan-3-ylamino)-2-hydroxypropoxy)-N-methylbenzenesulfonamide]
5.38	CNS(=O)(=O)c1cccc(OC[C@@H](O)CNC2COC3(CCN(S(=O)(=O)c4ccc(Cl)c(C)c4)CC3)C2)c1 (stereo partly drawn) [Compound 151, 3-((2S)-3-(8-(4-chloro-3-methylphenylsulfonyl)-1-oxa-8-azaspiro[4.5]decan-3-ylamino)-2-hydroxypropoxy)-N-methylbenzenesulfonamide]
90.7	CNS(=O)(=O)c1cccc(OC[C@@H](O)CNC2COC3(CCN(S(=O)(=O)c4cn(C)nc4C(F)(F)F)CC3)C2)c1 (stereo partly drawn) [Compound 152, 3-((2S)-2-hydroxy-3-(8-(1-methyl-3-(trifluoromethyl)-1H-pyrazol-4-ylsulfonyl)-1-oxa-8-azaspiro[4.5]decan-3-ylamino)propoxy)-N-methylbenzenesulfonamide]
43.6	CNS(=O)(=O)c1cccc(OC[C@@H](O)CNC2COC3(CCN(S(=O)(=O)c4ccc(OC)c(OC)c4)CC3)C2)c1 (stereo partly drawn) [Compound 153, 3-((2S)-3-(8-(3,4-dimethoxyphenylsulfonyl)-1-oxa-8-azaspiro[4.5]decan-3-ylamino)-2-hydroxypropoxy)-N-methylbenzenesulfonamide]
34.4	CNS(=O)(=O)c1cccc(OC[C@@H](O)CNC2COC3(CCN(S(=O)(=O)c4cc(C)ccc4C)CC3)C2)c1 (stereo partly drawn) [Compound 154, 3-((2S)-3-(8-(2,5-dimethylphenylsulfonyl)-1-oxa-8-azaspiro[4.5]decan-3-ylamino)-2-hydroxypropoxy)-N-methylbenzenesulfonamide]
